Like-named read-outs stand apart in the source and are kept apart here.
Legend:
Assay type in all cases: biochemical
tTG = molecular target: T1, tTG (Cavia cutleri, UniProt P08587); assay: Fibrinogen clotting assay, tTG (alpha bands scanned); conditions: read-out: % tTG Inhibition
T1 construct: purchased Sigma
T1 sequence (P08587 1-690): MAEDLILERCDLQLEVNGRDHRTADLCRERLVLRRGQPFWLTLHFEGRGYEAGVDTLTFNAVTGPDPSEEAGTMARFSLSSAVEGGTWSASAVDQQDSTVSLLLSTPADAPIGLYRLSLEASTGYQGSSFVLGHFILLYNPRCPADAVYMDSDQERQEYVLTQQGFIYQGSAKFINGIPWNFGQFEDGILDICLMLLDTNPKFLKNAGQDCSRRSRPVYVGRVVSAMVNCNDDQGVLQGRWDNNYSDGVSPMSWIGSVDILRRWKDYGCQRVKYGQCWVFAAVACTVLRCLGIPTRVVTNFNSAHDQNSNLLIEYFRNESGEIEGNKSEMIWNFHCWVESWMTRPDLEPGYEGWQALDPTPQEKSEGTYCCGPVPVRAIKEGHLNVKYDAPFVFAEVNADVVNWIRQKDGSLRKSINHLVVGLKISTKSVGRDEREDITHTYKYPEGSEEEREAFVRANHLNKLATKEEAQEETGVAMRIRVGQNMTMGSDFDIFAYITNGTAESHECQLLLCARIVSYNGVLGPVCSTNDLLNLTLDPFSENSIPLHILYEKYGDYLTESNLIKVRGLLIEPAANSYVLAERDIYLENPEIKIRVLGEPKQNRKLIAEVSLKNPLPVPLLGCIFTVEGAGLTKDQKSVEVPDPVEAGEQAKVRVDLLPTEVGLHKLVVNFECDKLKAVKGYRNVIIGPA
Description: (§1) Clots were formed in 1.5 ml Eppendorf tubes by adding reagents to give the following final assay concentrations in a total volume of 100 μl: 2 mg/ml FXIII-free fibrinogen purified on a rabbit anti-FXIII column (Enzyme Research Labs); 20 mM CaCl2; 1 unit/ml thrombin (bovine, Enzyme Research Labs); and either 1 μg/ml FXIIIa (recombinant human FXIIIa2 (ZymoGenetics)) or 20 μg/ml tTG (Sigma) in 120 mM NaCl plus 25 mM Tris at about pH 7.2. In addition, 10 μl of one of the following was added to each tube in varying concentrations to determine a dose response: iodoacetamide, ZG-1400a or cerulenin. The final reaction volume in each Eppendorf tube was adjusted to 100 μl with 120 mMNaCl plus 25 mM Tris at about pH 7.2.
(§2) A positive (complete cross-linking) control contained fibrinogen, enzyme (FXIIIa or tTG), calcium, and thrombin at final assay concentrations listed above, and was tested in the absence of any inhibitor. A negative (no cross-linking) control contained a solution of FXIII-free fibrinogen, thrombin and 20 μM EDTA [(ethylene dinitrilo)tetraacetic acid, disodium salt, dihydrate (J. T. Baker, Phillipsburg, N.J.)] in the absence of calcium and enzyme. Both positive and negative controls contained a final DMSO concentration of 1%. The FXIIIa-treated clots and their controls were incubated for about 10 min at about 37° C., while the tTG-treated clots and their controls were incubated for about 4 h at about 37° C. After incubation, all of the clots and controls were frozen to quench reactions.
(§3) Frozen clots and controls were boiled for about 3 min, centrifuged at 14,000 RPM for 5 min, and then the supernatant was removed. The clots were resuspended in 100 μl lysis buffer and incubated overnight at 37° C. The lysis buffer Contained 10M urea, 10 mM EDTA, 1% sodium dodecyl sulfate ("SDS"), and 1% 2-mercaptoethanol. After incubation, approximately 5 μl of each sample was brought to a final volume of 20 μl with a reducing sample buffer (containing 125 mM Tris, pH 6.8, 20% glycerol, 4% SDS, 10% 2-mercaptoethanol, and 0.025% bromophenol blue), and applied to 4-15% gradient gels (Integrated Separation Systems, Natick, Mass.) for polyacrylamide electrophoresis (PAGE) at 200 volts for approximately 1 h or until the tracking dye reached the bottom of the gel.
(§4) After staining with Coomassie blue, the alpha, beta, and gamma chains of fibrin were visualized as bands on the gel. The presence of FXIIIa-catalyzed fibrin cross-linking was observed by the appearance of a gamma-gamma dimer, and the disappearance of the monomeric gamma band from the gels. The tTG cross-linking occurs by formation of alpha chain polymers and alpha2 -gamma oligomers. Since there are many bands, they are difficult to visualize. A better indication of tTG cross-linking was the disappearance of the monomeric alpha band from the gels. In addition, the gamma band was reduced, but to a lesser degree than in FXIIIa cross-linked clots.
(§5) The gels were also scanned on a densitometer (Bio Image Whole Band Analyzer, Millipore Corp., Bedford, Mass.). The relative intensity of gamma-gamma bands were scanned and compared for FXIIIa inhibition, while alpha bands were scanned and compared for tTG inhibition. No cross-linkingwas detected in the negative controls containing only FXIII-free fibrinogen thrombin and DMSO. […] The inhibition results obtained from PAGE of samples prepared as described above, and containing ZG-1400a at 100 μM and 10 μM, or cerulenin or iodoacetamide at 1 mM, 100 μM, and 10 μM, are shown in Table 2.

FXIIIa [1] = molecular target: T2, FXIIIa (Homo sapiens, UniProt P00488); assay: Fibrinogen clotting assay, FXIIIa (gamma-gamma bands scanned); conditions: read-out: % FXIIIa Inhibition
T2 sequence (P00488 39-732 limits assumed): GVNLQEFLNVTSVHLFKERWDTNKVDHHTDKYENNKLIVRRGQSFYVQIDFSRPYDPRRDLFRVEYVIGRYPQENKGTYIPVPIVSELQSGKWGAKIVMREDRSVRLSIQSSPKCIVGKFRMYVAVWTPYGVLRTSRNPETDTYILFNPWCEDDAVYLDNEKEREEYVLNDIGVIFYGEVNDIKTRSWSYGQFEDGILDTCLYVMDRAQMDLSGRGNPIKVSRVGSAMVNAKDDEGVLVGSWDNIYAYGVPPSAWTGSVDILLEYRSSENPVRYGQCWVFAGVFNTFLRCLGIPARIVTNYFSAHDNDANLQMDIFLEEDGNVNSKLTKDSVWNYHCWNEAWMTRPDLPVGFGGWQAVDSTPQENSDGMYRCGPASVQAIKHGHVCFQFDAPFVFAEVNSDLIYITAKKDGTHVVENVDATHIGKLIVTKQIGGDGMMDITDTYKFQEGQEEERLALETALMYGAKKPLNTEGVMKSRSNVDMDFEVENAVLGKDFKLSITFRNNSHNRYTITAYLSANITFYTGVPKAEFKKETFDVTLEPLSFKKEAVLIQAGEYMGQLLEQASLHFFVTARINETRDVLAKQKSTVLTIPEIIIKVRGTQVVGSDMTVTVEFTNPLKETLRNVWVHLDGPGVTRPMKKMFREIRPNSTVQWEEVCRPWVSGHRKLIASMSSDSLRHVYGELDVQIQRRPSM
Description: as §1, §2, §3, §4, §5

FXIIIa [2] = molecular target: T2, FXIIIa; assay: Primary FXIIIa screening assay (cross-linking of biotinylated fibrinogen and immobilized fibronectin)
Description: The primary FXIIIa screening assay used a 96-well high throughput assay format. This assay assesses test sample inhibition of FXIIIa catalyzed cross-linking of biotinylated fibrinogen and immobilized fibronectin.
Test samples (possibly containing FXIIIa inhibitors) were added to 96-well plates coated with fibronectin, followed by the addition of FXIIIa, as described in the primary FXIIIa screening assay, below. Biotinylated fibrinogen was added to the wells, and streptavidin-alkaline phosphatase was used to detect biotinylated fibrinogen that had been cross-linked to fibronectin.
Purified fibronectin was diluted to 1 μg/ml in 0.1M Na2 CO3, pH 9.7, and added to control and test assay wells of 96-well plates at 100 μl/well. All wells were incubated overnight at 4° C.
After incubation, the plate wells were washed twice with 200 μl/well of wash buffer per wash to remove all fibronectin not bound to the wells. The wash buffer contained 0.135M NaCl, 2.7 mM KCl, 25 mM Tris at about pH 7.4, and 0.1% Tween 20® (Sigma Chemical Co., St. Louis, Mo.; polyoxyethylenesorbitan monolaurate). The plate wells were then blocked with 200 μl/well blocking buffer and incubated for 1-2 h at 37° C. The blocking buffer contained 0.135M NaCl, 2.7 mM KCl, 25 mM Tris at about pH 7.4, 0.1% Tween 20®, and 0.5% BSA (bovine serum albumin, Sigma fraction V; Sigma). After incubation, the plates wells were again washed with 200 μl/well of wash buffer to remove excess blocking buffer.
Briefly, fibrinogen was dialyzed against 0.1M NaHCO3, pH 8.5 (coupling buffer) at a concentration of 1 mg/ml. BNHS was dissolved in dimethylformamide at a concentration of 1.7 mg/ml, and added to fibrinogen in coupling buffer at a ratio of 30 μl BNHS to 1 ml fibrinogen. The mixture was incubated with rocking for 4 h at room temperature, dialyzed against PBS, and stored in aliquots at -80° C.
Biotinylated fibrinogen (40 μl of 20 μg/ml solution) was added to each plate well. Except in control wells (which received 10 μl of 10% DMSO alone), 10 μl of each of the 11,198 crude extracts in 10% DMSO were added to duplicate wells after the addition of biotinylated fibrinogen, resulting in a 1% final assay concentration of DMSO.
FXIIIa (recombinant human FXIIIa2 (ZymoGenetics), as described in European Patent No. 0 268 772, granted Apr. 26, 1995, and incorporated herein by reference) was diluted to 100 μg/ml in a solution of 50 mM Tris, 5 mM CaCl2 at pH 7.4 containing 1 unit/ml thrombin (bovine; Enzyme Research Labs) and incubated for 20 min at 37° C. FXIIIa then was diluted to 1 μg/ml in a cross-linking buffer consisting of the blocking buffer described above plus 20 mM CaCl2 and 75 ng/ml D-phenylalanyl-L-prolyl-L-arginine chloromethyl ketone (PPACK; Calbiochem, La Jolla, Calif.). Fifty microliters of FXIIIa in cross-linking buffer was added to each test and control well. All wells then were incubated for about 10 min at 37° C.
After incubation, the wells were washed twice with 200 μl/well of wash buffer to remove all biotinylated fibrinogen that was not cross-linked to fibronectin.

[3] = 10 μM, alpha bands, densitometer
[4] = 100 μM, alpha bands, densitometer
[5] = 10 μM, gamma-gamma bands, densitometer
[6] = 100 μM, gamma-gamma bands, densitometer
[7] = purified compound, read-out: IC50 FXIIIa Primary Screen

NC(=O)CI [Iodoacetamide, iodoacetamide]
inhibition at 10 µM (tTG): 72%
inhibition at 100 µM (tTG): 68%
inhibition at 1000 µM (tTG): 60%
inhibition at 10 µM (FXIIIa [1]): 66%
inhibition at 100 µM (FXIIIa [1]): 100%
inhibition at 1000 µM (FXIIIa [1]): 100%
IC50 (FXIIIa [2]): 320 µM

CC=CCC=CCCC(=O)C1OC1C(N)=O (centres unmarked) [Cerulenin, 2,3-epoxy-4-oxo-7,10-dodecadienamide]
inhibition at 10 µM (tTG; [3]): 30%
inhibition at 100 µM (tTG; [4]): 79%
inhibition at 1000 µM (tTG; 1 mM, alpha bands, densitometer): 94%
inhibition at 10 µM (FXIIIa [1]; [5]): 8%
inhibition at 100 µM (FXIIIa [1]; [6]): 38%
inhibition at 1000 µM (FXIIIa [1]; 1 mM, gamma-gamma bands, densitometer): 100%
IC50 (FXIIIa [2]; [7]): 29 µM

C[C@@H]1CCC/C=C\C(=O)Cc2cc(O)cc(O)c2C(=O)O1 [ZG-1400, R(-) enantiomer of cis-resorcylide]
inhibition at 10 µM (tTG; [3]): 80%
inhibition at 100 µM (tTG; [4]): 83%
inhibition at 10 µM (FXIIIa [1]; [5]): 66%
inhibition at 100 µM (FXIIIa [1]; [6]): 100%
inhibition of FXIIIa (FXIIIa [2]; 0.01X concentration): about 65%
IC50 (FXIIIa [2]; [7]): 5.7 µM

Reference: US5710174A, “Factor XIIIA inhibitor” (Zymo Genetics, Inc., priority 1995, dated 1998)
